One data set deals with mice. To be noted: cited from earlier work.
Data set [1] is described as follows: MRI of tubes using a T1 pulse sequence. The settings on record: 1.0 and 0.1 nM Gd, same molar concentrations.
Method: Colloidal gadolinium Oxide prepared according to Example 9, and Gadolinium DTPA, each at a concentration of each of 1.0 and 0.1 nM Gd, were added to a volume of 1 mL in a 2 mL screw cap plastic tube, and were subjected to MRI using a T1 pulse sequence.
Row 3 is water, a negative control.
On data set [2], the source says:
Table 1 summarizes characteristics of gadolinium DTPA (a previously described MRI contrast agent) and of compositions that are gadolinium oxide complexed with reduced dextran as provided herein, comparing characteristics of these to an ideal vascular contrast agent.

Data set [3] deals with pig mesenchymal stem cells (MSC). Nature of the data set: Cell viability test. Type of data set: cell-based. The procedure:
FIG. 1 is a set of photomicrographs showing results from a cell viability test using Pig MSCs.
In all experiments colloid was incubated with cells in growth medium for 12 hours (at a concentration of 1 mg Eu/mL) which was then washed away.

Data set [4] in a line: Size and aqueous stability of colloid after crosslinking or surface modification. The class given is physicochemical. The procedure:
The dextran covered lanthanide colloid was prepared according to Example 6 except that lanthanum chloride was substituted for samarium chloride. In a fume hood, to 40 mL of colloid was added 100 mL of 5M NaOH, 40 mL distilled water and 40 mL epichlorohydrin. The mixture was incubated at room temperature for about 24 hours with shaking to promote interaction of the organic phase (epichlorohydrin) and aqueous phase which includes the dextran covered colloid. Epichlorohydrin was removed by placing the colloid in a dialysis bag and dialyzing against 20 changes of distilled water of 20 liters each. After dialysis, the product was filtered through a 0.2 micron filter and stored at 4° C. The size and aqueous stability of the colloid suspension were unaffected by this treatment.
The reduced dextran covered colloid was prepared essentially according to Example 10 except that lutetium chloride was substituted for gadolinium chloride. In a fume hood, to 40 mL of colloid was added 100 mL of 5M NaOH, 40 mL of distilled water and 40 mL of epichlorohydrin. The mixture was incubated at room temperature for about 24 hours with shaking to promote interaction of the organic phase (epichlorohydrin) and aqueous phase which includes the dextran covered colloid. Epichlorohydrin was removed by placing the colloid in a dialysis bag and dialyzing against 5 changes of distilled water of 4 liters each. […]

Regarding `[Cl][Gd]([Cl])[Cl]` [gadolinium chloride], the “most common lesions after injection” value with mice is “mineral emboli in capillaries, accumulation of mineral in the mononuclear phagocytic system, hepatocellular necrosis, and lymphoid depletion, necrosis and mineralisation in the spleen”. In the case of `O=C([O-])CN(CCN(CC(=O)[O-])CC(=O)[O-])CCN(CC(=O)[O-])CC(=O)[O-].[Gd+3]` [Gadolinium DTPA], in data set [1], the “potency as contrast agent (T1 weighted image)” value was “equally potent”. In addition, in data set [2], the Autoclavable without excipients result is given as “Yes” and the “Non toxic at vast excess” value is recorded as “Yes”. Consider `C[CH2][Hg][S]c1ccccc1C(=O)[O-].[Na+]` [thimerasol], for which the “state of cells (FIG. 1 Panel C)” value in data set [3] (added to growth medium, after 24 hours) is on record as “severe deterioration”. In addition, the “time to cell death” value in data set [3] (positive control) is “less than 24 hours”. In the case of “Gadolinium Oxide Colloid Modified with Biotin [Example 22]”, the “size and aqueous stability of the colloid suspension after the treatment” value in data set [4] is “unaffected”.
